Patent publication US4218443A, “Polyether ionophores as antiobesity and hypotriglyceridemic agents” (Hoffmann-La Roche Inc., priority 1979, dated 1980)
Where two headings read alike, the source gives them in different places.

Tests used:
[1] = system: hepatic fatty acid synthesis; test: In vivo hepatic fatty acid synthesis in meal-fed rats; design: species or system Charles River rat; details: 60 mg/kg i.p., sodium salt, mean ± SE
Experimental: (§1) In the following examples, female rats (Charles River CD strain, 180-200 g) were housed individually in wire bottom cages in a temperature (22°) and light (12 hr light and 12 hr dark) regulated room. They had free access to Purina Rodent Chow and water.

[2] = system: meal-fed Charles River rats; test: Food consumption and serum parameters in meal-fed rats (in vivo fatty acid synthesis experiments); design: species or system Charles River rat; details: 60 mg/kg i.p., sodium salt, mean ± SE
Experimental: as §1
Faster enzymatic procedure for serum triglycerides, Clinical Chemistry, 21: 1983-1985], cholesterol, [C. C. Allain, L. Poon, S. G. Chan, W. Richmond and P. Fu (1974). Enzymatic determination of total serum cholesterol, Clinical Chemistry, 20: 470-475] and glucose, [R. Konig, H. Dauwalder and R. Richterich (1971). Vergleichende Bestimmunogen der Uringlucosekonzentration mit der Polarimetrie und einer enzymatischen Methode (Hexokinase/Glucose-6-Phosphat-Dehydrogenase), Schweiz. Med. Wschr., 101: 860-866] by enzymatic procedures.

human pancreatic lipase = biological target: T1, human pancreatic lipase (Homo sapiens, UniProt P16233); test: In vitro titrimetric (Radiometer pH-stat) pancreatic lipase assay, Dixon plots; type: biochemical; details: in vitro Radiometer assay, read-out: Inhibition constants for bromolasalocid inhibition of human pancreatic lipase
T1 construct: Human pancreatic juice was obtained from a patient with acute pancreatitis; from tissue; host or cells: human pancreatic juice from the cannulated duct of a patient with acute pancreatitis; gift of Dr. George Nardi, Massachusetts General Hospital
T1 sequence (P16233 17-465): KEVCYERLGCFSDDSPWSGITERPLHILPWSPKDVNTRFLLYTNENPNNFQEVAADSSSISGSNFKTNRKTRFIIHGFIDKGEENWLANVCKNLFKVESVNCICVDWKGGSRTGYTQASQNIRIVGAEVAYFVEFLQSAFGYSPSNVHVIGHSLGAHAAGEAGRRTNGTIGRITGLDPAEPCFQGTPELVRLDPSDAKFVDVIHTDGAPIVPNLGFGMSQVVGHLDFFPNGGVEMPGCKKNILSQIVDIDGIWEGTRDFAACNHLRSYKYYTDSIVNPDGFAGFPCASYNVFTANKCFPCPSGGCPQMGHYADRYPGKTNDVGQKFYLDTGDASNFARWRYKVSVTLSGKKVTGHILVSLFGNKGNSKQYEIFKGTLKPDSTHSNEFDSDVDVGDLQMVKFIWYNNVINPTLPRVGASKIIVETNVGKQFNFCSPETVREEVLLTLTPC

pancreatic lipase = biological target: T2, pancreatic lipase (Rattus norvegicus, UniProt P27657); test: In vitro pancreatic lipase screen ([14C]-triolein assay); type: biochemical; details: read-out: Pancreatic Lipase Activity I50
T2 construct: stimulated to release pancreatic proteins by addition of 10^-5 M carbachol; from tissue; host or cells: pancreatic lobules of fasted Charles River female rats; released pancreatic juice, centrifuged
T2 sequence (P27657 17-465): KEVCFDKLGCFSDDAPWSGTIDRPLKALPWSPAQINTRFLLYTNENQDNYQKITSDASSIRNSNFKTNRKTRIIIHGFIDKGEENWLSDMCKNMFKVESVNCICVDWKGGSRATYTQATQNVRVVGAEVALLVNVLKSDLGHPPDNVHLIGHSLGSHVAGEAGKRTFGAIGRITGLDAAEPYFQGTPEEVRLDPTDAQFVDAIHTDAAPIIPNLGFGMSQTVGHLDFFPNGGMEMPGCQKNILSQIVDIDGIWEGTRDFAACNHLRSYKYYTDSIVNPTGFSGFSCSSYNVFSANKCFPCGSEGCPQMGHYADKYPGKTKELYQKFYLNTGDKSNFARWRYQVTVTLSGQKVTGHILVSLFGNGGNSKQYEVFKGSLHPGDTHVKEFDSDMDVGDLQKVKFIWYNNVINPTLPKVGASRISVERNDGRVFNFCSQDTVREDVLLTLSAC
Experimental: The method for assaying pacreatic lipase in vitro using [^14 C]-triolein was based on the method of Garfinkel and Schotz for lipoprotein lipase, [A. S. Garfinkel and M. C. Schotz (1972). […] Glycerol tri[1-^14 C]oleate (32 mM) was emulsified in 0.2 M Tris-HCl pH 8 containing 0.15 M NaCl, bovine serum albumin (15 mg/ml) and sodium taurocholate (1.4 mM) by sonication for three, one min intervals at 80 watts. Final assay volume was 1.0 ml. The reaction was initiated by the addition of enzyme and was allowed to proceed for 10 min. The reaction was linear for up to 20 min. The liberated free fatty acids were extracted into 0.1 M KOH and quantitated in a liquid scintillation counter using 2,5-bis-2-(5-tertbutylbenzoxazolyl)-tniophene (BBOT) scintillation fluid (Yorktown Research, South Hackensack, N.J.).
Ionophores were added to the above assay as solutions in either 90% ethanol or water, pH 8; 90% ethanol had no effect on the enzyme activity assayed by either method.

[3] = system: intestinal absorption of triglycerides (corn oil); test: In vivo absorption of triglycerides (corn oil absorption)
[4] = system: fatty acid synthesis in isolated hepatocytes; test: In vitro fatty acid synthesis in isolated hepatocytes; type: cell-based, Charles River female rat; details: Rattus norvegicus, Hepatocyte, 1 h, pH 7.4; for activity at 500 µM: 0.5 mM; for activity at 1000 µM: 1.0 mM
Experimental: Hepatocytes were prepared from meal-fed Charles River female rats as described previously, [A. C. Sullivan, J. Triscari, J. G. Hamilton and J. A. Ontko (1977). Hypolipidemic activity of (-)-hydroxycitrate, Lipids, 12: 1-9]. Briefly, rats were anesthetized with Nembutal, livers were perfused in situ and hepatocytes were isolated in Krebs-Henseleit bicarbonate buffer, pH 7.4. Incubations with isolated hepatocytes were performed in triplicate at 37° C. Each incubation flask contained in a total volume of 2.1 ml, 10.5 mg cells (dry weight), 1 ml of Krebs-Henseleit buffer, pH 7.4, radioactive substrate (1 μCi [U-^14 C]alanine, 1 mCi^3 H2 O and 1 μmole alanine) and 0.3% glucose. The appropriate concentration of inhibitor was prepared in dimethylsulfoxide and added to the incubation flask. Dimethylsulfoxide had no effect on fatty acid synthesis. ^3 H2 O was used to determine the total rate of fatty acid synthesis independently of carbon precursors of acetyl CoA. [^14 C]alanine was used as an acetyl CoA precursor. Rates of fatty acid synthesis were determined as described previously, [A. C. Sullivan, J. Triscari, J. G. Hamilton and J. A. Ontko (1977). Hypolipidemic activity of (-)-hydroxycitrate, Lipids, 12: 1-9]. Data are expressed as nmoles ^3 H2 O or [^14 C]alanine converted into fatty acids per mg dry weight cells in 60 minutes.

[5] = Experiment 1, di-(N-methylglucamine), 325 mg/kg p.o.
[6] = Experiment 1, ethanolate, 145 mg/kg p.o.
[7] = Experiment 1, sodium, 140 mg/kg p.o.
[8] = read-out: Fatty Acid Synthesis 3H2O
[9] = read-out: Fatty Acid Synthesis [14C]alanine

Monensin
Fatty Acid Synthesis 3H2O converted [1]: 14.8 ± 4.0 μmoles per 1 g liver in 30 min
Fatty Acid Synthesis [14C]alanine converted [1]: 209 ± 64 nmoles per 1 g liver in 30 min
Food Consumption [2]: 16.1 ± 1.4 g

CC[C@@H](C(=O)[C@@H](C)[C@@H](O)[C@H](C)CCc1c(Br)cc(C)c(O)c1C(=O)O)[C@H]1O[C@](CC)([C@H]2CC[C@](O)(CC)[C@H](C)O2)C[C@@H]1C [Bromolasalocid, di-(N-methylglucamine)]
Ki (human pancreatic lipase): 160 µM

CC[C@@H](C(=O)[C@@H](C)[C@@H](O)[C@H](C)CCc1c(Br)cc(C)c(O)c1C(=O)O)[C@H]1O[C@](CC)([C@H]2CC[C@](O)(CC)[C@H](C)O2)C[C@@H]1C [Bromolasalocid]
IC50 (pancreatic lipase): 600 µM
Area under curve (corn oil absorption) [3, 5]: 660
Area under curve, % of control [3, 5]: 60 % of control
Area under curve (corn oil absorption) [3, 6]: 704
Area under curve, % of control [3, 6]: 64 % of control
Area under curve (corn oil absorption) [3, 7]: 659
Area under curve, % of control [3, 7]: 60 % of control

CC[C@@H](C(=O)[C@@H](C)[C@@H](O)[C@H](C)CCc1c(Br)cc(C)c(O)c1C(=O)O)[C@H]1O[C@](CC)([C@H]2CC[C@](O)(CC)[C@H](C)O2)C[C@@H]1C [Bromolasalocid, Ethanolate]
Ki (human pancreatic lipase): 100 µM

CCCCCCC(=O)Oc1c(C)ccc(CC[C@@H](C)[C@H](O)[C@H](C)C(=O)[C@H](CC)[C@H]2O[C@](CC)([C@H]3CC[C@](O)(CC)[C@H](C)O3)C[C@@H]2C)c1C(=O)O [Lasalocid Heptanoate]
IC50 (pancreatic lipase): 220 µM

CCCCCCCC(=O)Oc1c(C)ccc(CC[C@@H](C)[C@H](O)[C@H](C)C(=O)[C@H](CC)[C@H]2O[C@](CC)([C@H]3CC[C@](O)(CC)[C@H](C)O3)C[C@@H]2C)c1C(=O)O [Lasalocid Octanoate]
IC50 (pancreatic lipase): 110 µM

CC[C@@H](C(=O)[C@@H](C)[C@@H](O)[C@H](C)CCc1ccc(C)c(OC(C)=O)c1C(=O)O)[C@H]1O[C@](CC)([C@H]2CC[C@](O)(CC)[C@H](C)O2)C[C@@H]1C [Lasalocid Acetate]
IC50 (pancreatic lipase): 120 µM

C[C@H](CCC(=O)O)C[C@H](C)C[C@H](C)C(=O)/C=C(\O)[C@H](C)C[C@H](C)C/C=C/[C@@H](C)[C@@H](O)[C@@H](C)[C@@H](O)C[C@@H]1CC[C@@](C)([C@H]2CC[C@@](C)([C@@H](C)O)O2)O1 [Ionomycin]
IC50 (pancreatic lipase): 960 µM

CC[C@@H](C(=O)[C@@H](C)[C@@H](O)[C@H](C)CCc1c(I)cc(C)c(O)c1C(=O)O)[C@H]1O[C@](CC)([C@H]2CC[C@](O)(CC)[C@H](C)O2)C[C@@H]1C [Iodolasalocid]
IC50 (pancreatic lipase): 260 µM

CC[C@@H](C(=O)[C@@H](C)[C@@H](O)[C@H](C)CCc1c(Br)cc(C)c(O)c1C(=O)O)[C@H]1O[C@](CC)([C@H]2CC[C@](O)(CC)[C@H](C)O2)C[C@@H]1C [Bromolasalocid, Na^+]
activity at 500 µM [4, 8]: 14%
activity at 500 µM [4, 9]: 0%
activity at 1000 µM [4, 8]: 22%
activity at 1000 µM [4, 9]: 0%
Ki (human pancreatic lipase): 50 µM

CC[C@@H](C(=O)[C@@H](C)[C@@H](O)[C@H](C)CCc1c([N+](=O)[O-])cc(C)c(O)c1C(=O)O)[C@H]1O[C@](CC)([C@H]2CC[C@](O)(CC)[C@H](C)O2)C[C@@H]1C [Nitrolasalocid]
IC50 (pancreatic lipase): 1320 µM

CC/C(=C\C=C\[C@@H]1C=C[C@@H]2[C@@H](CC)CC[C@H]2[C@@H]1C(=O)c1ccc[nH]1)[C@@H]1O[C@@H]([C@@H](C)C(=O)O)CC[C@@H]1C [X-14547A]
IC50 (pancreatic lipase): 700 µM

CCC(C(=NOC)C(C)C(O)C(C)CCc1ccc(C)c(O)c1C(=O)O)C1OC(CC)(C2CCC(O)(CC)C(C)O2)CC1C (stereo not shown) [Lasalocid methoxime]
IC50 (pancreatic lipase): 200 µM
